Among the test systems are EKVX; OVCAR-5; SW-620; MCF7; K562; PC-3; M14; UO-31; A549; RPMI-8226; UACC-62; NCI-H460; HL-60; RXF 393; ACHN; MDA-MB-231; NCI/ADR-RES; HCC 2998.
Common to all, as to test: growth of human tumour cells (NCI), 48 h

The structures appear in SMILES notation.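 Each compound was tested at five concentrations against cells in 96-well plates for 48 hours. The concentration for 50% growth inhibition is given as GI50.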 Activity calls are given as the source filed them. No stated cut-off is given here; in the data, active = GI50 up to about 1.1 µM and inactive = higher.

With `c1ccc2c(c1)OC(N1CCCC1)c1cnc(N3CCOCC3)nc1-2` (stereo not given), the GI50 with EKVX is 21.6 µM (inactive); in the test on OVCAR-5 it was 22.5 µM (inactive); in the test on SW-620, 91 µM (inactive); in the test on MCF7 it was 10.8 µM (inactive); with K562 it was 62.5 µM (inactive); in the test on PC-3, 41.3 µM (inactive). Further, the GI50 with M14 was 57.8 µM (inactive); in the test with UO-31 it was 19.3 µM (inactive); in the test with A549 it was 57.7 µM (inactive); in the test with RPMI-8226 it was 25.7 µM (inactive); in the test on UACC-62, 43.1 µM (inactive); in the test with NCI-H460, 53.3 µM (inactive). In addition, the GI50 with HL-60 is 74.1 µM (inactive); in the test with RXF 393 it was 21.7 µM (inactive); in the test on ACHN, 38.2 µM (inactive); with MDA-MB-231, 45.1 µM (inactive).

For `Fc1ccccc1CN1COc2c(cc(Cl)c3cccnc23)C1`, the GI50 in the test on EKVX was 0.378 µM (active); in the test with OVCAR-5 it was 3.05 µM (inactive); in the test with SW-620, 3.08 µM (inactive); in the test with MCF7, 3.33 µM (inactive); in the test with NCI/ADR-RES, 0.0425 µM (active); in the test on K562, 1.3 µM (inactive). Also, the GI50 in the test on PC-3 is 1.44 µM (inactive); with M14, 2.05 µM (inactive); in the test with UO-31 it was 0.653 µM (active); in the test on A549, 2.16 µM (inactive); in the test on RPMI-8226, < 0.01 µM (active); in the test on UACC-62, 0.427 µM (active). The GI50 with NCI-H460 is 0.533 µM (active); with HL-60, 0.265 µM (active); in the test on RXF 393, 13.9 µM (inactive); in the test with ACHN, 0.533 µM (active); in the test on MDA-MB-231, 0.422 µM (active).

As for `CC(C)(C)c1cc(/C=C2/NC(=O)NC2=O)cc(C(C)(C)C)c1O`, the GI50 with EKVX was 10.9 µM (inactive); in the test on OVCAR-5, 15.9 µM (inactive); in the test with SW-620, 18.3 µM (inactive); with MCF7, 13 µM (inactive); in the test with NCI/ADR-RES, 14.1 µM (inactive); in the test with K562 it was 13.2 µM (inactive). The GI50 is 7.46 µM (inactive) in the test with PC-3; 11.4 µM (inactive) in the test on RPMI-8226; 16.5 µM (inactive) in the test with UACC-62; 14.5 µM (inactive) in the test on NCI-H460; 10.8 µM (inactive) with HL-60; 6.25 µM (inactive) in the test on RXF 393. The GI50 with ACHN is 11.8 µM (inactive); in the test with MDA-MB-231 it was 12.6 µM (inactive).

As for `COC(=O)C1=C(C(=O)OC)SC(=C2S[C@@H]3[C@@H]4C[C@H]([C@@H]3S2)[C@H]2C(=O)OC(=O)[C@@H]42)S1`, the GI50 with EKVX, with OVCAR-5, with SW-620, in the test with HCC 2998, in the test with MCF7 and in the test with NCI/ADR-RES was > 100 µM (inactive) in each case. Further, the GI50 in the test on K562, with PC-3, with M14, in the test on UO-31, with A549 and in the test with RPMI-8226 was > 100 µM (inactive) in each case. The GI50 in the test with UACC-62, in the test with HL-60, in the test on RXF 393, in the test on ACHN and with MDA-MB-231 was > 100 µM (inactive) throughout.

In the case of `CS/C(=N\C#N)S/C=C/C(=O)c1ccc(Cl)cc1`, the GI50 in the test with EKVX is 66.5 µM (inactive); in the test on OVCAR-5, 39.4 µM (inactive); in the test on SW-620 it was 15.6 µM (inactive); with HCC 2998, 42.4 µM (inactive); with MCF7, 26.4 µM (inactive); in the test with NCI/ADR-RES, 27.7 µM (inactive). Also, the GI50 with K562 was 10.5 µM (inactive); in the test with PC-3, 46.6 µM (inactive); with M14 it was 22.3 µM (inactive); in the test on UO-31, 18.3 µM (inactive); in the test on A549 it was > 100 µM (inactive); in the test with UACC-62, 22.9 µM (inactive). For the same compound, the GI50 in the test with NCI-H460 was > 100 µM (inactive); in the test on HL-60, 8.15 µM (inactive); in the test with RXF 393 it was 19.6 µM (inactive); in the test on ACHN it was 34.4 µM (inactive).

The record behind these values is ChEMBL document CHEMBL1201862, “PubChem BioAssay data set” (2004).
